From ChEMBL document CHEMBL1201862, “PubChem BioAssay data set” (2004)
Calls of active or inactive are those of the source.

What was measured:
[1] = target: T1, Sentrin-specific protease 1 (Homo sapiens, UniProt Q9P0U3); assay: potency of human SENP1 inhibitors, dose response, biochemical, kinetic FRET (AID 651697); format: functional; settings: read-out: IC50_Mean
[2] = target: T1, Sentrin-specific protease 1; assay: Dose response confirmation of small molecule inhibitors of the catalytic domain of the SUMO protease, SENP1 in a FRET assay.; format: functional; settings: read-out: IC50_Mean
[3] = target: Genome polyprotein (dengue virus type 2, UniProt P29990); assay: Dengue-2 NS5 methyltransferase inhibitors, primary screen, biochemical, confirmation dose response (AID 588689); format: functional
Chain of Genome polyprotein (P29990 2492-3391 limits assumed): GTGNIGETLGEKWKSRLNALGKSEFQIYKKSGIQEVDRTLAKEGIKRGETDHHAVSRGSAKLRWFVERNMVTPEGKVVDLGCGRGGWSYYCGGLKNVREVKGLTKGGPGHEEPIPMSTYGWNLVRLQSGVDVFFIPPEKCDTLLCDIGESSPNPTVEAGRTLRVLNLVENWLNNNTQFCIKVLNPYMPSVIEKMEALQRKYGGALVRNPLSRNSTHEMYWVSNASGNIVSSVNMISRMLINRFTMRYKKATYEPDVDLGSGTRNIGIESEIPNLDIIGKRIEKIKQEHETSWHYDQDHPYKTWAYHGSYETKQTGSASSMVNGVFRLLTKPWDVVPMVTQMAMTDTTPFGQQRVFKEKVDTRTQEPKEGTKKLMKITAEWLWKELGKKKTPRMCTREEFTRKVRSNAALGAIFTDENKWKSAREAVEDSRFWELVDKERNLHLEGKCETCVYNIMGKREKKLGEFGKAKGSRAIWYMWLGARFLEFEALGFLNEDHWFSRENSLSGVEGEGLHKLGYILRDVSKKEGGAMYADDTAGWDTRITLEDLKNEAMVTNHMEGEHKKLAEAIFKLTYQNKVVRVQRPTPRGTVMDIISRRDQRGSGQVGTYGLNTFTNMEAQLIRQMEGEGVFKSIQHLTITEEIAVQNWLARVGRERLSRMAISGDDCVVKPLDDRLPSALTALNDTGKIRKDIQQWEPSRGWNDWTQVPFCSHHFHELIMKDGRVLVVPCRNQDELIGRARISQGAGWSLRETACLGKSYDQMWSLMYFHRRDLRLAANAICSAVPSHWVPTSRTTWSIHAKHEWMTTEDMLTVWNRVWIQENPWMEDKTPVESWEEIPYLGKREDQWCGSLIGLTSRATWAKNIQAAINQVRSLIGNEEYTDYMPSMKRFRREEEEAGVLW

[4] = target: Arf-GAP with SH3 domain, ANK repeat and PH domain-containing protein 1 (Homo sapiens, UniProt Q9ULH1); format: functional;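 also: biochemical fluorescence polarization dose–response screen measuring inhibition of ASAP1; ASAP1 GAP domain stimulating GTP hydrolysis by truncated human ARF1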
Chain of Arf-GAP with SH3 domain, ANK repeat and PH domain-containing protein 1 (Q9ULH1 whole entry, the tested form may be a part): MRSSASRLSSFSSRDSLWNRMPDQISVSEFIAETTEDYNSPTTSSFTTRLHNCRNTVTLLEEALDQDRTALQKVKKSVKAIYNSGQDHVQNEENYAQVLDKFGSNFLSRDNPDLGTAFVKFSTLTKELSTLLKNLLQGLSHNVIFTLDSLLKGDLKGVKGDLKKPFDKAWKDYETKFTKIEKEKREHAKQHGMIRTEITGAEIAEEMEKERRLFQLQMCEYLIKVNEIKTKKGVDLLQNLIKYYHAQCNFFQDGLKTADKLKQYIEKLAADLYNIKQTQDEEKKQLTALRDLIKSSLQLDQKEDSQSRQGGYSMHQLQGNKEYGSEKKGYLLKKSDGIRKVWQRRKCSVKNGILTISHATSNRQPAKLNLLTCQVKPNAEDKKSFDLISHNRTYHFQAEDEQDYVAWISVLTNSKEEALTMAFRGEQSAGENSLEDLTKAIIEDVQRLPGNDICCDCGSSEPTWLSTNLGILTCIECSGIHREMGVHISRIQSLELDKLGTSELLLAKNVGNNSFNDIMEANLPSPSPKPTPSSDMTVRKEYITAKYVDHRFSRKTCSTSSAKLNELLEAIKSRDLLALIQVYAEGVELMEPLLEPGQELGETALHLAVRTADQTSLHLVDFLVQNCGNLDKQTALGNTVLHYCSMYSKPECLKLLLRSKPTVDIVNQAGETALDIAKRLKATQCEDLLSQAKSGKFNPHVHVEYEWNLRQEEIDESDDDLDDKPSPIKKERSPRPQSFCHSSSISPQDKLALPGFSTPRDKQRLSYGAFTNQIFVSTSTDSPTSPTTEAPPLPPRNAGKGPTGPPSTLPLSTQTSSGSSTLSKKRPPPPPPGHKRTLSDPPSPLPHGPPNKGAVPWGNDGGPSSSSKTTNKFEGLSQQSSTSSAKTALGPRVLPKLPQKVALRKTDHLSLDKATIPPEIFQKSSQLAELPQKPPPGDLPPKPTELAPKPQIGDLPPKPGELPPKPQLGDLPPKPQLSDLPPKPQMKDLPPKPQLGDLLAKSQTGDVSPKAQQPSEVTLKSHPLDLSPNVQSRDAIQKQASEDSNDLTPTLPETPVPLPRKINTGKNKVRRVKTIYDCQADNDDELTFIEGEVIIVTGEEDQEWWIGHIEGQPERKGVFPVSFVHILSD

[5] = target: T2, Scavenger receptor class B member 1 (Mus musculus, UniProt Q61009); assay: inhibitors of SR-BI dependent HDL uptake, dose response, ldlA[mSR-BI] CHO cells, fluorescence plate reader, dry powder, set 9 (AID 623880); format: functional, cell-based
T2 sequence (Q61009 whole entry): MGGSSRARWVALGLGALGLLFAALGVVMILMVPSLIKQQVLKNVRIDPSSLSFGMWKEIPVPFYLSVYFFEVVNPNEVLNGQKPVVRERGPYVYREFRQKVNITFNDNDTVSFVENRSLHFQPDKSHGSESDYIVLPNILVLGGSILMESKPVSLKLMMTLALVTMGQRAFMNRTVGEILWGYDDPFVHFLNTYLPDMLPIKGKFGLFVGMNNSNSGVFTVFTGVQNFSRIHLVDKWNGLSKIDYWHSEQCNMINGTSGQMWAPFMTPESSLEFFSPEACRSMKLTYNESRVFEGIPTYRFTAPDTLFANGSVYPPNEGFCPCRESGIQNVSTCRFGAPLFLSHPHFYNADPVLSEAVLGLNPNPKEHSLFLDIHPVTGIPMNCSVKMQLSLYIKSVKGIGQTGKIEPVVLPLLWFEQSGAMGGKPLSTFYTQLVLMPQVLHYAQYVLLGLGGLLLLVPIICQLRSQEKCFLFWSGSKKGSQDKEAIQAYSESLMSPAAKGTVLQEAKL

[6] = cytotoxicity in ldlA[mSR-BI] CHO cells, dose response, cytotoxicity control for SR-BI HDL uptake inhibitor project, cell-based, CellTiter-Glo, 24 h, powder samples, set 7 (AID 624026); format: functional
[7] = target: T2, Scavenger receptor class B member 1; assay: inhibitors of SR-BI-mediated HDL uptake, dose response, cell-based, ldlA[mSR-BI] CHO, DiI fluorescence, dry powder, set 10 (AID 624029); format: functional

T1 sequence (Q9P0U3 whole entry, the tested form may be a part): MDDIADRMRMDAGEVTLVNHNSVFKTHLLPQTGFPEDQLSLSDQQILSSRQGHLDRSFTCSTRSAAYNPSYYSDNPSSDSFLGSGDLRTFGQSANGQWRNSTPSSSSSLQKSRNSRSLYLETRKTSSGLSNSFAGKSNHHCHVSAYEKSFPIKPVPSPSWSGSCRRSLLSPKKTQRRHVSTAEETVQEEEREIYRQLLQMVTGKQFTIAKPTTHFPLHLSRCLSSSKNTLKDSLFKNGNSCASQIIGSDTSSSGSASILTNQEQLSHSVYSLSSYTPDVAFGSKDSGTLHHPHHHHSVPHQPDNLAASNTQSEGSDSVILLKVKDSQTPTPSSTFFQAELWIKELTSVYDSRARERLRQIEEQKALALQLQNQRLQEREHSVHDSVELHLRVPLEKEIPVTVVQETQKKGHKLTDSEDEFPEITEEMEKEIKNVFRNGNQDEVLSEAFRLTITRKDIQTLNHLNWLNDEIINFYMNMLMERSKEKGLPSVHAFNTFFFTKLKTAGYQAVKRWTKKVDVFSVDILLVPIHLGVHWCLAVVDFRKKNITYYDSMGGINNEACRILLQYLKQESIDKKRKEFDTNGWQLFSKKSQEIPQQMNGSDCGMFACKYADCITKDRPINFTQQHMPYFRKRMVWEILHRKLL

Structure (SMILES): Cc1cc(C)c(Cn2c(C(=O)O)c(C=O)c3ccccc32)c(C)c1
- IC50 [1]: 16.9 µM (active)
- IC50 [2]: 20.8 µM (inactive)

Structure (SMILES): Cc1cc(C)c2nc(N3C(=O)C(O)=C(C(=O)c4ccco4)C3c3cccc(O)c3)sc2c1 (configuration not stated)
- IC50 [3]: 32.4 µM (active)
- IC50 [4]: 81.8 µM (inactive)

Structure (SMILES): CC(=O)Nc1ccc(Cl)c(C(=O)Nc2ccc(N3CCN(C(=O)OC(C)(C)C)CC3)cc2)c1
- AC50 [5]: 0.00659 µM (active)
- AC50 [6]: > 70 µM (inactive)
- AC50 [7]: 0.00402 µM (active)
